Source: ChEMBL document CHEMBL1201862, “PubChem BioAssay data set” (2004)
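1) Cells in 96-well plates. 2) Compound, 48 h, 5 concentrations. 3) Linear interpolation between surrounding doses. 4) Unreached endpoint = highest concentration. GI50: concentration for 50% inhibition of growth.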 The source made the active and inactive calls. Rule as the data show it: active = GI50 up to about 1.1 µM and inactive = higher.

Experiments:
Assay in all cases: DTP human tumour cell line panel, 48 h
[1] = test system: MOLT-4
[2] = test system: 786-0
[3] = test system: OVCAR-3
[4] = test system: SK-OV-3
[5] = test system: HCT-116
[6] = test system: SK-MEL-2
[7] = test system: LXFL 529
[8] = test system: SK-MEL-28
[9] = test system: SF-539
[10] = test system: M19-MEL
[11] = test system: CCRF-CEM
[12] = test system: ACHN
[13] = test system: UACC-62
[14] = test system: KM12
[15] = test system: HCC 2998
[16] = test system: UACC-257
[17] = test system: A549
[18] = test system: NCI-H226
[19] = test system: TK-10
[20] = test system: DLD-1
[21] = test system: DMS-273
[22] = test system: SR
[23] = test system: HL-60
[24] = test system: HT-29
[25] = test system: OVCAR-4
[26] = test system: SNB-19
[27] = test system: HOP-62
[28] = test system: SN12C
[29] = test system: RXF 393
[30] = test system: U-251
[31] = test system: HOP-18
[32] = test system: OVCAR-8
[33] = test system: NCI-H23
[34] = test system: M14
[35] = test system: A498
[36] = test system: EKVX
[37] = test system: KM-20L2
[38] = test system: HCT-15
[39] = test system: CAKI-1
[40] = test system: NCI-H460
[41] = test system: SF-268
[42] = test system: Malme-3M
[43] = test system: DMS-114
[44] = test system: SNB-75
[45] = test system: SF-295
[46] = test system: UO-31
[47] = test system: SK-MEL-5
[48] = test system: HOP-92
[49] = test system: SW-620
[50] = test system: NCI-H522
[51] = test system: RXF 631
[52] = test system: SNB-78
[53] = test system: IGROV-1
[54] = test system: COLO 205

CC(C)c1cccc2sc(NC(=O)C(=O)C(C#N)c3cccc4ccccc34)nc12 (centres undefined)
GI50 [1]: 23.1 µM (inactive)
GI50 [2]: > 100 µM (inactive)
GI50 [3]: 41.7 µM (inactive)
GI50 [4]: 48.4 µM (inactive)
GI50 [5]: 76.9 µM (inactive)
GI50 [6]: 45.2 µM (inactive)
GI50 [7]: 73.1 µM (inactive)
GI50 [8]: > 100 µM (inactive)
GI50 [9]: 20.7 µM (inactive)
GI50 [10]: 91.4 µM (inactive)
GI50 [11]: 41.8 µM (inactive)
GI50 [12]: 69.8 µM (inactive)
GI50 [13]: 57.4 µM (inactive)
GI50 [14]: > 100 µM (inactive)
GI50 [15]: 65.8 µM (inactive)
GI50 [16]: 92.3 µM (inactive)
GI50 [17]: 80.7 µM (inactive)
GI50 [18]: 71.1 µM (inactive)
GI50 [19]: > 100 µM (inactive)
GI50 [20]: 98.6 µM (inactive)
GI50 [21]: 90.4 µM (inactive)
GI50 [22]: 32.4 µM (inactive)
GI50 [23]: 30.5 µM (inactive)
GI50 [24]: 77.4 µM (inactive)
GI50 [25]: 29.8 µM (inactive)
GI50 [26]: > 100 µM (inactive)
GI50 [27]: 99.8 µM (inactive)
GI50 [28]: > 100 µM (inactive)
GI50 [29]: 25.2 µM (inactive)
GI50 [30]: 57.5 µM (inactive)
GI50 [31]: 61.2 µM (inactive)
GI50 [32]: 72.1 µM (inactive)
GI50 [33]: 61.5 µM (inactive)
GI50 [34]: > 100 µM (inactive)
GI50 [35]: 73.3 µM (inactive)
GI50 [36]: 10.9 µM (inactive)
GI50 [37]: > 100 µM (inactive)
GI50 [38]: 75.5 µM
GI50 [39]: 30.5 µM (inactive)
GI50 [40]: > 100 µM (inactive)
GI50 [41]: > 100 µM (inactive)
GI50 [42]: 73.3 µM (inactive)
GI50 [43]: 40.4 µM (inactive)
GI50 [44]: 23.4 µM (inactive)
GI50 [45]: 69.7 µM (inactive)
GI50 [46]: 31.4 µM (inactive)
GI50 [47]: 68.1 µM (inactive)
GI50 [48]: 30.4 µM (inactive)
GI50 [49]: > 100 µM (inactive)
GI50 [50]: 54.1 µM (inactive)
GI50 [51]: > 100 µM (inactive)
GI50 [52]: 93.1 µM (inactive)
GI50 [53]: 77.6 µM (inactive)
GI50 [54]: > 100 µM (inactive)
